The test system of one assay is MCF-7. The experiment in a line: MTS cell proliferation assay, MCF-7. The class given is cell-based, human. The procedure:
Cancer cells (breast cancer cell lines MCF-7, MDA-MB-361, SKBR3 and MDA-MB-231, pancreatic cancer cell lines AsPC-1. […] Proliferation was measured by treating cells with the 3-(4,5-dimethylthiazol-2-yl)-5-(3-carboxymethoxyphenyl)-2-(4-sulfophenyl)-2H-tetrazolium) (MTS) in a CellTiter 96t AQueous Non-Radioactive Cell Proliferation Assay kit from Promega, Madison, Wis., USA). Absorbance of all wells was determined by measuring OD at 550 nm after 1 hr incubation at 37° C. on a 96-well iMark™ Microplate Absorbance Reader (BioRad, Hercules, Calif.). Each individual compound was tested in quadruplicate wells for each concentration, and the results were reported as mean absorption±s.e.
In Vitro Determination of Effects of Synthesized Compounds on Cancer Cell Proliferation. Cancer cells (breast cancer cell lines MCF-7 and MDA-MB-231, pancreatic cancer cell lines AsPC-1 and Panc-1) were […], 0.01, 0.1, 1, 5, 10, […] Proliferation was measured by treating cells with the 3-(4,5-dimethylthiazol-2-yl)-5-(3-carboxymethoxyphenyl)-2-(4-sulfophenyl)-2H-tetrazolium) (MTS) in a CellTiter 96t Aqueous Non-Radioactive Cell Proliferation Assay kit (Promega, Madison, Wis., USA). Absorbance of all wells was determined by measuring OD at 550 nm after 1 h incubation at 37° C. on a 96-well iMark™ Microplate Absorbance Reader (BioRad, Hercules, Calif.). Each individual compound was tested in quadruplicate wells for each concentration.
(Tetrazolium dyes change colour on reduction, which living cells bring about.)

Another assay relates to MDA-MB-231. The assay can be described thus: MTS cell proliferation assay, MDA-MB-231. The class given is cell-based, human. As to conditions: Homo sapiens. The procedure:
Cancer cells (breast cancer cell lines MCF-7, MDA-MB-361, SKBR3 and MDA-MB-231, pancreatic cancer cell lines AsPC-1. BxPC3 and Panc-1) were seeded in 96-well plates at a density of 1000-2000 cells/well and treated with DMSO, 0.01, 0.1, 1, 5, 10, and […] of STAT3 individual inhibitors for 72 hrs. Proliferation was measured by treating cells with the 3-(4,5-dimethylthiazol-2-yl)-5-(3-carboxymethoxyphenyl)-2-(4-sulfophenyl)-2H-tetrazolium) (MTS) in a CellTiter 96t AQueous Non-Radioactive Cell Proliferation Assay kit from Promega, Madison, Wis., USA). Absorbance of all wells was determined by measuring OD at 550 nm after 1 hr incubation at 37° C. on a 96-well iMark™ Microplate Absorbance Reader (BioRad, Hercules, Calif.).
In Vitro Determination of Effects of Synthesized Compounds on Cancer Cell Proliferation. Cancer cells (breast cancer cell lines MCF-7 and MDA-MB-231, pancreatic cancer cell lines AsPC-1 and Panc-1) were seeded in 96-well plates at a density of 2×10^3 cells/well and treated with DMSO, 0.01, 0.1, 1, 5, 10, and 100 μM of individual STAT3 inhibitors for 72 h. Proliferation was measured by treating cells with the 3-(4,5-dimethylthiazol-2-yl)-5-(3-carboxymethoxyphenyl)-2-(4-sulfophenyl)-2H-tetrazolium) (MTS) in a CellTiter 96t Aqueous Non-Radioactive Cell Proliferation Assay kit (Promega, Madison, Wis., USA). Absorbance of all wells was determined by measuring OD at 550 nm after 1 h incubation at 37° C. on a 96-well iMark™ Microplate Absorbance Reader (BioRad, Hercules, Calif.). Each individual compound was tested in quadruplicate wells for each concentration. […]

Setting [1] is: Homo sapiens, MCF7, 72 h; read-out: IC50 MCF-7 (Table 1).
The mark [2] stands for this setting: MDA-MB-231, ER-negative breast cancer, 72 hrs, >10 = no effect, read-out: IC50 MDA-MB-231 (Table 1).
[3] abbreviates: Homo sapiens, MCF7, 72 h, read-out: IC50 MCF-7 (Table 1).
Setting [4] is: MCF-7, 48 hr, μM concentrations.
Where [5] appears, read: MDA-MB-231, 72 h, read-out: IC50 MDA-MB-231 (Table 1).

The structures appear in SMILES notation. Read-outs that look alike come from different tables or passages of the source.

In general, IC50 refers to the concentration that inhibits the measured activity by half.

Regarding `CS(=O)(=O)N1CCN(CCOc2ccc(Cl)cc2C(=O)Nc2ccc([N+](=O)[O-])cc2Cl)CC1` [HJC-2-55, 5-Chloro-N-(2-chloro-4-nitrophenyl)-2-[2-(4-methanesulfonylpiperazin-1-yl)-ethoxy]benzamide], the 50% inhibitory concentration (IC50) in the assay on MCF-7 (setting [1]) and in the assay on MDA-MB-231 (setting [2]) was greater than 10 µM each time.
As to `O=C(Nc1ccc([N+](=O)[O-])cc1Cl)c1cc(Cl)ccc1OCCN1CCNCC1` [HJC-2-52, 5-Chloro-N-(2-chloro-4-nitro-phenyl)-2-(2-piperazin-1-yl-ethoxy)benzamide], the IC50 worked out at 12.4 µM with MCF-7 (setting [1]) and 8.66 µM with MDA-MB-231 (setting [2]).
`CC(=O)N1CCC(Oc2ccc(Cl)cc2C(=O)Nc2ccc([N+](=O)[O-])cc2Cl)CC1` [HJC-4-22, 2-(1-Acetylpiperidin-4-yloxy)-5-chloro-N-(2-chloro-4-nitrophenyl)benzamide]: the IC50 with MCF-7 (setting [1]) was greater than 10 µM; with MDA-MB-231 (setting [2]), 5.87 µM.
On to `CS(=O)(=O)NCCOc1ccc(Cl)cc1C(=O)Nc1ccc([N+](=O)[O-])cc1Cl` [HJC-4-26, 5-Chloro-N-(2-chloro-4-nitrophenyl)-2-(2-methanesulfonylaminoethoxy)benzamide], for which the IC50 in the assay on MCF-7 (setting [1]) and in the assay with MDA-MB-231 (setting [2]) was greater than 10 µM each time.
Consider `NCCOc1ccc(Cl)cc1C(=O)Nc1ccc2c(c1)S(=O)(=O)C=C2` [HJC-3-93, 2-(2-Amino-ethoxy)-5-chloro-N-(1,1-dioxo-1H-1λ^6-benzo[b]thiophen-6-yl)benzamide], for which the IC50 in the assay with MCF-7 (setting [1]) is 3.47 µM; with MDA-MB-231 (setting [2]), 3.12 µM.
For `O=C(Nc1ccc2c(c1)S(=O)(=O)C=C2)c1cc(Cl)ccc1OCCN1CCOCC1` [HJC-3-9, 5-Chloro-N-(1,1-dioxo-1H-1λ^6-benzo[b]thiophen-6-yl)-2-(2-morpholin-4-yl-ethoxy) benzamide], the IC50 with MCF-7 (setting [3]) amounted to 0.49 µM; with MDA-MB-231 (setting [5]), 5.43 µM. Besides, in the assay on MCF-7 (setting [4]), the “inhibition on breast cancer cell proliferation (FIG. 1)” value is “significant inhibition”.
On to `COc1ccc(C(=O)Nc2ccc3c(c2)S(=O)(=O)CC3OC)cc1` (stereo not drawn) [HJC-2-20, 4-Methoxy-N-(3-methoxy-1,1-dioxo-2,3-dihydro-1H-1λ^6-benzo[b]thiophen-6-yl)benzamide], for which the IC50 in the assay on MCF-7 (setting [1]) and in the assay on MDA-MB-231 (setting [2]) was greater than 10 µM each time.
As for `CS(=O)(=O)N1CCC(Oc2ccc(Cl)cc2C(=O)Nc2ccc([N+](=O)[O-])cc2Cl)CC1` [HJC-4-24, 5-Chloro-N-(2-chloro-4-nitrophenyl)-2-(1-methanesulfonylpiperidin-4-yloxy)benzamide], the IC50 in the assay on MCF-7 (setting [1]) and in the assay with MDA-MB-231 (setting [2]) was greater than 10 µM each time.
Consider `NCCOCCOc1ccc(Cl)cc1C(=O)Nc1ccc([N+](=O)[O-])cc1Cl` [HJC-2-58, 2-[2-(2-Amino-ethoxy)-ethoxy]-5-chloro-N-(2-chloro-4-nitro-phenyl)benzamide], for which the IC50 was found to be 9.37 µM in the assay on MCF-7 (setting [1]) and 5.3 µM in the assay on MDA-MB-231 (setting [2]).
The matching figures for `COc1ccc(S(=O)(=O)Nc2ccc3c(c2)S(=O)(=O)C=C3)cc1` [HJC-3-68, N-(1,1-Dioxo-1H-1λ^6-benzo[b]thiophen-6-yl)-4-methoxybenzenesulfonamide]: 3.45 µM and 2.71 µM.
The matching figures for `O=C(Nc1ccc2c(c1)S(=O)(=O)C=C2)c1cc(Cl)ccc1OCCN1CCCCC1` [HJC-3-79, 5-Chloro-N-(1,1-dioxo-1H-1λ^6-benzo[b]thiophen-6-yl)-2-(2-piperidin-1-yl-ethoxy)benzamide]: 3.74 µM and 2.51 µM.
With `Nc1ccc(NC(=O)c2cc(Cl)ccc2OC2CCNCC2)c(Cl)c1` [HJC-4-23, N-(4-Amino-2-chlorophenyl)-5-chloro-2-(piperidin-4-yloxy)benzamide], the IC50 with MCF-7 (setting [3]) and in the assay with MDA-MB-231 (setting [5]) was greater than 10 µM throughout.
Regarding `O=C(Nc1ccc2c(c1)S(=O)(=O)C=C2)c1ccncc1` [HJC-3-80, N-(1,1-Dioxo-1H-1λ^6-benzo[b]thiophen-6-yl)-isonicotinamide], the IC50 in the assay on MCF-7 (setting [1]) and in the assay with MDA-MB-231 (setting [2]) was greater than 10 µM in each case.
On to `CS(=O)(=O)Nc1ccc(NC(=O)c2cc(Cl)ccc2OC2CCNCC2)c(Cl)c1` [HJC-4-35-2], for which the IC50 in the assay on MCF-7 (setting [1]) and in the assay on MDA-MB-231 (setting [2]) was greater than 10 µM throughout.
On to `CN1CCC(Oc2ccc(Cl)cc2C(=O)Nc2ccc([N+](=O)[O-])cc2Cl)CC1` [HJC-3-81, 5-Chloro-N-(2-chloro-4-nitrophenyl)-2-(1-methylpiperidin-4-yloxy)benzamide], for which the IC50 in the assay with MCF-7 (setting [3]) worked out at 4.11 µM; in the assay with MDA-MB-231 (setting [5]), 2.69 µM. In the assay with MCF-7 (setting [4]), the “inhibition on breast cancer cell proliferation (FIG. 1)” value is “significant inhibition”.
Take `CC(=O)Nc1ccc(NC(=O)c2cc(Cl)ccc2OC2CCNCC2)c(Cl)c1` [HJC-4-32, N-(4-Acetylamino-2-chloro-phenyl)-5-chloro-2-(piperidin-4-yloxy)benzamide]: the IC50 with MCF-7 (setting [1]) and in the assay on MDA-MB-231 (setting [2]) was greater than 10 µM each time.
For the molecule `O=C(Nc1ccc2c(c1)S(=O)(=O)C=C2)c1ccnc(Br)c1` [HJC-3-95, 2-Bromo-N-(1,1-dioxo-1H-1λ^6-benzo[b]thiophen-6-yl)-isonicotinamide], the concentration for half-maximal inhibition (IC50) in the assay on MCF-7 (setting [1]) is 3.64 µM; in the assay with MDA-MB-231 (setting [2]) it was greater than 10 µM.
`O=C(Nc1ccc2c(c1)S(=O)(=O)C=C2)c1cc(Cl)ccc1OCCF` [HJC-3-99, 5-Chloro-N-(1,1-dioxo-1H-1λ^6-benzo[b]thiophen-6-yl)-2-(2-fluoroethoxy)benzamide]: the IC50 was 4 µM with MCF-7 (setting [3]) and 4.42 µM in the assay on MDA-MB-231 (setting [5]).
Turning to `O=C(Nc1ccc2c(c1)S(=O)(=O)C=C2)c1cc(Cl)ccc1OCCBr` [Compound 2], the IC50 was greater than 10 µM in the assay on MCF-7 (Homo sapiens, MCF7, read-out: IC50 MCF-7 (Table 2)) and greater than 10 µM with MDA-MB-231 (MDA-MB-231, read-out: IC50 MDA-MB-231 (Table 2)).
`N#C/C(=C\c1ccc(O)c(O)c1)C(=O)Nc1ccc2c(c1)S(=O)(=O)C=C2` [HJC-4-11, 2-Cyano-3-(3,4-dihydroxy-phenyl)-N-(1,1-dioxo-1H-1λ^6-benzo[b]thiophen-6-yl)-acrylamide]: the IC50 is 4.27 µM with MCF-7 (setting [3]) and greater than 10 µM with MDA-MB-231 (setting [5]).
Regarding `O=C(Nc1ccc2c(c1)S(=O)(=O)C=C2)c1ccccn1` [HJC-3-20, Pyridine-2-carboxylic acid (1,1-dioxo-1H-1λ^6-benzo[b]thiophen-6-yl)amide], the figures for the IC50 with MCF-7 (setting [1]) and with MDA-MB-231 (setting [2]) were 6.7 µM and greater than 10 µM, respectively.
Turning to `O=C(Nc1ccc([N+](=O)[O-])cc1Cl)c1cc(Cl)ccc1OCCBr` [HJC-3-64, 2-(2-Bromoethoxy)-5-chloro-N-(2-chloro-4-nitrophenyl)benzamide], the IC50 with MCF-7 (setting [3]) and in the assay with MDA-MB-231 (setting [5]) was greater than 10 µM throughout.
On to `CN1CCN(CCOc2ccc(Cl)cc2C(=O)Nc2ccc3c(c2)S(=O)(=O)C=C3)CC1` [HJC-3-78, 5-Chloro-N-(1,1-dioxo-1H-1λ^6-benzo[b]thiophen-6-yl)-2-[2-(4-methylpiperazin-1-yl)-ethoxy]benzamide], for which the IC50 came to 4.08 µM with MCF-7 (setting [1]) and 2.86 µM with MDA-MB-231 (setting [2]).
Take `CC(=O)N1CCN(CCOc2ccc(Cl)cc2C(=O)Nc2ccc([N+](=O)[O-])cc2Cl)CC1` [HJC-4-27, 2-[2-(4-Acetylpiperazin-1-yl)-ethoxy]-5-chloro-N-(2-chloro-4-nitrophenyl)benzamide]: the IC50 in the assay with MCF-7 (setting [1]) and in the assay with MDA-MB-231 (setting [2]) was greater than 10 µM throughout.
Take `COc1ccc(C(=O)Nc2ccc3c(c2)S(=O)(=O)C=C3)cc1` [HJC-2-15, N-(1,1-Dioxo-1H-1λ^6-benzo[b]thiophen-6-yl)-4-methoxybenzamide]: the values for the IC50 with MCF-7 (setting [1]) and in the assay with MDA-MB-231 (setting [2]) were 5.85 µM and 4.97 µM, respectively.
As for `COC1CS(=O)(=O)c2cc(NC(=O)c3cc(-c4ccccc4)nc4ccccc34)ccc21` (stereo not drawn) [HJC-1-57, 2-Phenyl-quinoline-4-carboxylic acid (3-methoxy-1,1-dioxo-2,3-dihydro-1H-1λ^6-benzo[b]thiophen-6-yl)amide], the IC50 in the assay on MCF-7 (setting [1]) was greater than 10 µM; in the assay on MDA-MB-231 (setting [2]), 13.8 µM.

The values above are taken from patent US9884863B2, “STAT3 inhibitor” (Board of Regents, The University of Texas System, priority 2013, dated 2018).
